The test system of one data set is 3T3. Description: Cell proliferation assay (SRB), 3T3. Type of data set: cell-based. The settings on record: Mus musculus, NIH3T3, 48 h, read-out: IC50 cell proliferation 3T3.
The subject of a further data set is 3T3/neu. The experiment in a line: Cell proliferation assay (SRB), 3T3/neu. Type of data set: cell-based, mouse. The settings on record: for IC50: Mus musculus, 48 h, read-out: IC50 cell proliferation 3T3/neu.
Another data set deals with SK-Br-3. The experiment in a line: Cell proliferation assay (SRB), SK-Br-3. As to conditions: Homo sapiens, read-out: IC50 cell proliferation SK-Br-3. Type of data set: cell-based.
Another data set deals with BT474. Description: Cell proliferation assay (SRB), BT474. The settings on record: Homo sapiens, BT-474, 144 h, read-out: IC50 cell proliferation BT474. Type of data set: cell-based.
Data set [1] concerns SW620 colon carcinoma cells. The experiment in a line: Cell proliferation assay (SRB), SW620. Type of data set: cell-based. The settings on record: Homo sapiens, SW-620, 48 h, read-out: IC50 cell proliferation SW620.
The subject of a further data set is 3T3/neu xenografts. The experiment in a line: Effect on tumor xenografts, 3T3/neu. The format is in vivo, Mice.
A further data set has as its system BT474 xenografts. The experiment in a line: Effect on tumor xenografts, BT474. Type of data set: in vivo, Mice. As to conditions: for maximum tumor inhibition: day 21; for effect on BT474 xenografts: 10-40 mg/kg/day. The protocol: In animals bearing BT474 xenografts, treatment of animals with (E)N-{4-[3-chloro-4-(2-pyridinylmethoxy)anilino]-3-cyano-7-ethoxy-6-quinolinyl}-4-(methylamino)-2-butenamide had no effect at 10-40 mg/kg/day, as shown in Table 4.

The target in data set [2] is T1, cytoplasmic kinase domain of HER-2 (Homo sapiens, UniProt P04626).
T1 construct: Purified recombinant C-terminal fragment of HER-2 was incubated with ATP
The experiment in a line: HER-2 autophosphorylation assay. Type of data set: biochemical. As to conditions: purified recombinant C-terminal fragment of HER-2 with ATP; phosphotyrosine antibodies; mean and SE (n).

The target in another data set is T2, EGFR (Homo sapiens, UniProt P00533).
T2 construct: purchased ProQinase, Freiburg, Germany
The experiment in a line: ErbB substrate phosphorylation assay (33PanQinase assay), EGFR. Type of data set: biochemical. As to conditions: peptide substrate phosphorylation, [γ33P]-ATP. As to the method:
(§1) Here, the ability of the compound to inhibit phosphorylation of a substrate peptide [poly(Glu-Tyr) or poly(Ala-Glu-Lys-Tyr)] was determined.

In another data set the target is T3, HER-2 (Homo sapiens, UniProt P04626).
T3 construct: purchased ProQinase, Freiburg, Germany
Description: ErbB substrate phosphorylation assay (33PanQinase assay), HER-2. Type of data set: biochemical. The settings on record: peptide substrate phosphorylation, [γ33P]-ATP. The protocol: as §1

The target of the next data set is T4, HER-4 (Homo sapiens, UniProt Q15303).
T4 construct: purchased ProQinase, Freiburg, Germany
The experiment in a line: ErbB substrate phosphorylation assay (33PanQinase assay), HER-4. Type of data set: biochemical. The settings on record: peptide substrate phosphorylation, [γ33P]-ATP. The protocol: as §1

A further data set deals with A431. The experiment in a line: Cell proliferation assay (SRB), A431. The format is cell-based. The settings on record: Homo sapiens, A-431, 48 h, A431, 2 days, mean and SE (n).

Read-outs that look alike come from different tables or passages of the source.

T4 sequence (Q15303 26-1308): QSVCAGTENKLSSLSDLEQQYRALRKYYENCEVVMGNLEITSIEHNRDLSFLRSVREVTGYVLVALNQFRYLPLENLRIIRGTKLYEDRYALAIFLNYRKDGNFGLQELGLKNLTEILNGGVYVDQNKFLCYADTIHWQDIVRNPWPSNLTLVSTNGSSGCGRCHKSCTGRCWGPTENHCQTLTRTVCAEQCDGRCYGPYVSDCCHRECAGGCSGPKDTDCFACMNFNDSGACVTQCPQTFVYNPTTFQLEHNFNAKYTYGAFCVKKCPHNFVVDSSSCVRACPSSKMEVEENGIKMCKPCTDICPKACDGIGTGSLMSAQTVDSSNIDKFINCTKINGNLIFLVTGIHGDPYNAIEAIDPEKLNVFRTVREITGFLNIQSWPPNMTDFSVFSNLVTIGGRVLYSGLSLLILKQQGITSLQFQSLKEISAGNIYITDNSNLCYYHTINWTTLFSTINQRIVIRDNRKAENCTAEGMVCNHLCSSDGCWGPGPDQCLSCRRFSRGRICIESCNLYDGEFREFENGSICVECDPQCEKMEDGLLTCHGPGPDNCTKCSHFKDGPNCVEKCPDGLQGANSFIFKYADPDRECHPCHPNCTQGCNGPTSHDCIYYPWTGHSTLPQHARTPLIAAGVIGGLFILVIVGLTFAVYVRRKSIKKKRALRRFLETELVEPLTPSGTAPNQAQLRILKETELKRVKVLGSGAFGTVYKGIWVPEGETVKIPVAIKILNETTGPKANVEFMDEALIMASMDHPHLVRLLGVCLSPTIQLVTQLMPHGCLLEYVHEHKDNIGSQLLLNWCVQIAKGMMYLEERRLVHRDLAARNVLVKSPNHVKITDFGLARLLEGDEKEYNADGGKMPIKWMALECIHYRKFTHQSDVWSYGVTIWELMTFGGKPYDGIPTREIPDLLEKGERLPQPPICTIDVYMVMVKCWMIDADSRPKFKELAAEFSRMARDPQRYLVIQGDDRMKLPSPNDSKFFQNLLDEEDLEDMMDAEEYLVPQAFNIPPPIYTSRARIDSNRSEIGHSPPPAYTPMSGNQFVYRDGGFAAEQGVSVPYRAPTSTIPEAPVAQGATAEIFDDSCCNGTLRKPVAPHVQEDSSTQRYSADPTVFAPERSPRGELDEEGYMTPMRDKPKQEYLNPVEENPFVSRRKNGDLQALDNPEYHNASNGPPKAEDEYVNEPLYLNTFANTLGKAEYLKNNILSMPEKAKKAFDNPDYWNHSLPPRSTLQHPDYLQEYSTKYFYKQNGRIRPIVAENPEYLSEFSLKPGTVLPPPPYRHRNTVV
T3 sequence (P04626 23-1255): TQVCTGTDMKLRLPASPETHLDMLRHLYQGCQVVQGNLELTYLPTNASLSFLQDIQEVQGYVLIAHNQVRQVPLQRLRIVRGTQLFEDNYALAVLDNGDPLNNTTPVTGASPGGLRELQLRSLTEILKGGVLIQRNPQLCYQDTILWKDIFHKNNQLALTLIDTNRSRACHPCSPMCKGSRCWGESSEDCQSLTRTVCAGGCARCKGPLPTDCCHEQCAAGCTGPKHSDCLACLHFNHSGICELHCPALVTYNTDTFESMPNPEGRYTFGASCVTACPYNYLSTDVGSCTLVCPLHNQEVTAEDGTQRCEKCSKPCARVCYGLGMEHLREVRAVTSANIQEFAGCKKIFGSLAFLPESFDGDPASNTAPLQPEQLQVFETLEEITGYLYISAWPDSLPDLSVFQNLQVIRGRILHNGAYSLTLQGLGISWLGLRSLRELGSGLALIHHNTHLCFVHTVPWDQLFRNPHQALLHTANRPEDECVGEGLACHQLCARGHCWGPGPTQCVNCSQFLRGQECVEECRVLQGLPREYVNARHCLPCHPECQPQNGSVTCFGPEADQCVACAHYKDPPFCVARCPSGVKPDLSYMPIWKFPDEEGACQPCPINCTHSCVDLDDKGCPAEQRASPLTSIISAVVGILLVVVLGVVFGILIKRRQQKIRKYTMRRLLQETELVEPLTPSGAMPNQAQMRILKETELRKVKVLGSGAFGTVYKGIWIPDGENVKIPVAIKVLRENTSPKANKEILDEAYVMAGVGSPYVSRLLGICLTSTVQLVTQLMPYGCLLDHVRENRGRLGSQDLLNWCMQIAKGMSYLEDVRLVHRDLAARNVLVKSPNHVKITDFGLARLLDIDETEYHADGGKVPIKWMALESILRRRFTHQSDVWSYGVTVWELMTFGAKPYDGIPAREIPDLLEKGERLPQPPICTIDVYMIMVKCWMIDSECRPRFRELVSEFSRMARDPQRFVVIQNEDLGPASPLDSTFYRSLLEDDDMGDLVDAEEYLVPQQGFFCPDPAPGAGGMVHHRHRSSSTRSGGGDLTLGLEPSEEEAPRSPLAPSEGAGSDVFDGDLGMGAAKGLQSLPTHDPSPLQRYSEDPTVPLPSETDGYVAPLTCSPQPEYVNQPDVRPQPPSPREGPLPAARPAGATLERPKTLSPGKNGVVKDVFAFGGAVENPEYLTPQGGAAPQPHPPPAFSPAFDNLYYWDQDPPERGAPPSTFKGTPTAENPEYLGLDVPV
T1 sequence (P04626 676-1255 limits assumed): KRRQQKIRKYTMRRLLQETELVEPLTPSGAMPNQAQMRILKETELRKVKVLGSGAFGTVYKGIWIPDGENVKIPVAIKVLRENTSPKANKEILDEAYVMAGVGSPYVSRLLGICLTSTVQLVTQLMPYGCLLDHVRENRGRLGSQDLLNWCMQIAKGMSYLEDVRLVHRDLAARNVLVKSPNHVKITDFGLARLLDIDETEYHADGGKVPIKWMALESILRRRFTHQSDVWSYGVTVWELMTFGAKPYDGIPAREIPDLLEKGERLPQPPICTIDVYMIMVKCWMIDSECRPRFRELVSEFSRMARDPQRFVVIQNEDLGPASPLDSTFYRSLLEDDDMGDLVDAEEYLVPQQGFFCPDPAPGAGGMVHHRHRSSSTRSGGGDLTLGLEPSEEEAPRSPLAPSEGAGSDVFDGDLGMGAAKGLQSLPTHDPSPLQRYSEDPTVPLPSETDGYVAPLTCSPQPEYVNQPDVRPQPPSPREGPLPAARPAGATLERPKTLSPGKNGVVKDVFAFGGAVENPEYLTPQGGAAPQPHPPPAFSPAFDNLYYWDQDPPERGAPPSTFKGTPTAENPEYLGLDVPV
T2 sequence (P00533 25-1210): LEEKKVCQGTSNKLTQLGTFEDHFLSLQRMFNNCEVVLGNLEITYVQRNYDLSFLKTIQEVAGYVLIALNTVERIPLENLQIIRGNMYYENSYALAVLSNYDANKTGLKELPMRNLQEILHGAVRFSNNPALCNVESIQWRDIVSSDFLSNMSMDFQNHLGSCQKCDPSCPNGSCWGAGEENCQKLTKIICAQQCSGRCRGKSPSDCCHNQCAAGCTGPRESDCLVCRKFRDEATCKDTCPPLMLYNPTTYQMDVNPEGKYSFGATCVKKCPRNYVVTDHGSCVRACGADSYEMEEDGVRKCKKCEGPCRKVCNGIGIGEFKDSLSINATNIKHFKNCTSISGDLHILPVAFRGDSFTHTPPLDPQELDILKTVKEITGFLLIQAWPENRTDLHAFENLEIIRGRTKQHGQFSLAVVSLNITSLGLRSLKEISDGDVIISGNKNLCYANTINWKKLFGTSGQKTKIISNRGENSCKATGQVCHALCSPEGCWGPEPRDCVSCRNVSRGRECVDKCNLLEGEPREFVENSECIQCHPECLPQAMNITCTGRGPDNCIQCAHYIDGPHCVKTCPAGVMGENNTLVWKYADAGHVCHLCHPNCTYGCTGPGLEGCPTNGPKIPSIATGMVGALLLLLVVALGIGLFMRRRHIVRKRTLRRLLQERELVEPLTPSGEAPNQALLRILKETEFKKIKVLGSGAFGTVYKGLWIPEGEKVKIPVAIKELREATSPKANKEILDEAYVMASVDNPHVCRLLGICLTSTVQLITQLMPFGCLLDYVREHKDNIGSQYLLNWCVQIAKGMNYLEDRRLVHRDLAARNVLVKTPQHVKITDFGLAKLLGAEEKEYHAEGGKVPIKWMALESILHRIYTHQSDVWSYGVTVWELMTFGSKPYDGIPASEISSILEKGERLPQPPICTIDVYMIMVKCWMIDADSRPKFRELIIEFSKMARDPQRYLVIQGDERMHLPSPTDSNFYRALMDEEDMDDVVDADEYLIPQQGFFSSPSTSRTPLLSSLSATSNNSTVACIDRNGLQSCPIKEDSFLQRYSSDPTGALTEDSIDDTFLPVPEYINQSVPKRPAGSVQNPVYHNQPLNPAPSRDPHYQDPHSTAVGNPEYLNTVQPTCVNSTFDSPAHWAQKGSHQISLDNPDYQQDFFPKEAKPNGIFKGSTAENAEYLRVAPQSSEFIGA

Take `CCOc1cc2ncc(C#N)c(Nc3ccc(OCc4ccccn4)c(Cl)c3)c2cc1NC(=O)/C=C/CN(C)C` [Dimethylamino, (E)N-{4-[3-Chloro-4-(2-pyridinylmethoxy)anilino]-3-cyano-7-ethoxy-6-quinolinyl}-4-(dimethylamino)-2-butenamide, reference compound]: the IC50 came out at 2190 ± 700 nM with 3T3; 5 ± 0.2 nM in the data set with 3T3/neu; 36 ± 20 nM with SK-Br-3 (SK-BR-3, 48 h); 2 ± 0.2 nM in the data set on BT474; 1220 ± 246 nM in [1]. Further, the tumor growth inhibition with 3T3/neu xenografts (first test, 40 mg/kg/day, day 18 (data not shown)) is given as 74%; with 3T3/neu xenografts (second independent test, between 40 and 80 mg/kg/day, day 14), 93-100%. In addition, the results for the maximum tumor inhibition in the data set on BT474 xenografts (10 mg/kg/day) and in the data set with BT474 xenografts (40 mg/kg/day) were 64% and 97%, respectively. For the same compound, in the data set on BT474 xenografts, the “effect on BT474 xenografts” value is recorded as “good antitumor activity”.

As for `CCOc1cc2ncc(C#N)c(Nc3ccc(OCc4ccccn4)c(Cl)c3)c2cc1NC(=O)/C=C/CNC` [Example 6, (E)N-{4-[3-Chloro-4-(2-pyridinylmethoxy)anilino]-3-cyano-7-ethoxy-6-quinolinyl}-4-(methylamino)-2-butenamide], the IC50 in [2] is 3.4 nM; against EGFR, 7 nM; on HER-2, 21 nM; on HER-4, 13 nM; with 3T3 (3T3 untransfected cells, 2 days, SRB, mean and SE (n)), 5460 nM; in the data set with 3T3/neu (3T3/neu, 2 days, SRB, mean and SE (n)), 40 nM. Moreover, the IC50 came out at 67 nM in the data set with A431; 34 nM in the data set on SK-Br-3 (48 h, SK-Br-3, 2 days, SRB, mean and SE (n)); 3 nM in the data set with BT474 (BT474, 6 days, SRB, mean and SE (n)); 1600 nM in data set [1] (SW620, 2 days, SRB, mean and SE (n)). In the data set on 3T3/neu (3T3/neu cells), the “fold less potent than the dimethylamino compound” value was found to be 8 fold. Also, the “effect on tumor growth” value is “no effect on tumor growth” in the data set on 3T3/neu xenografts (first test, daily oral, between 5 and 40 mg/kg/day); “no effect on tumor growth” in the data set on 3T3/neu xenografts (second independent test, 100 mg/kg/day). In the data set with BT474 xenografts, the “effect on BT474 xenografts” value is “no effect”.

One may read the melting point as the temperature, or range, at which the solid turns liquid. In turn, `CCOc1cc2ncc(C#N)c(Nc3ccc(F)c(Cl)c3)c2cc1NC(=O)/C=C/CNCC(=O)OC(C)(C)C` [Example 2, (E)N-{4-[3-chloro-4-fluoroanilino]-3-cyano-7-ethoxy-6-quinolinyl}-4-[N-(t-butyloxycarbonyl)methylamino]-2-butenamide] came in with a melting point of 106.5 to 108 °C.

The record behind these values is patent US20060270670A1, “Methods of synthesizing 6-alkylaminoquinoline derivatives” (priority 2005, published 2006).
